Columns and labels:
Assay type in all cases: functional
Conditions in all cases: route intravenous
Mus musculus [1] = test: In vivo tumor response 3 hour after post i.v. injection at a dose of 5 mg/kg in DBA/2 mice having SMT/F tumor after 1-2 days
Mus musculus [2] = test: In vivo tumor response 3 hour after post i.v. injection at a dose of 5 mg/kg in DBA/2 mice having SMT/F tumor after 30 days
Mus musculus [3] = test: In vivo tumor response 3 hour after post i.v. injection at a dose of 5 mg/kg in DBA/2 mice having SMT/F tumor after 21 days
Mus musculus [4] = test: In vivo tumor response 3 hour after post i.v. injection at a dose of 5 mg/kg in DBA/2 mice having SMT/F tumor after 7 days

SMILES | Tumor response (Mus musculus [1]) | Tumor response (Mus musculus [2]) | Tumor response (Mus musculus [3]) | Tumor response (Mus musculus [4])
CCC1(O)c2cc3nc4c(c5nc(cc6[nH]c(cc([nH]2)C1(C)O)c(C=O)c6C)[C@@H](C)[C@@H]5CCC(=O)OC)C(=O)OC(=O)C4=C3C (some centres undefined) | 0% |  |  | 
CCOC(=O)C(N)CCCCN1C(=O)C2=C(C)c3cc4[nH]c(cc5[nH]c(cc6nc(c(c2n3)C1=O)[C@@H](CCC(=O)OC)[C@@H]6C)c(C)c5C=O)C(C)(O)C4(O)CC (some centres undefined) | 100% | 20% | 20% | 100%
CCC1(O)c2cc3nc4c(c5nc(cc6[nH]c(cc([nH]2)C1(C)O)c(C=O)c6C)[C@@H](C)[C@@H]5CCC(=O)NC(CC(=O)OC(C)(C)C)C(=O)OC(C)(C)C)C(=O)OC(=O)C4=C3C (some centres undefined) | 100% | 80% | 80% | 100%
